Five molecules from US10726554B2, “Information processing apparatus, information processing system, and information processing method” (Sony Corporation, priority 2015, dated 2020) can be followed below.

What all share (assay type): cell-based
Test [1] deals with U2OS cells. Nature of the test: Change in motion speed by motor protein inhibitor (phase contrast imaging, average motion speed). The conditions noted are these: imaging time 60 minutes. On the procedure:
Images (moving image) of U2OS cells cultured at different medicine concentrations were captured with a phase contrast microscope. […] For the AMP-PNP, three types of cells respectively having medicine concentrations of 67, 200, and 670 micro M and a comparative cell to which nothing is administered were prepared. For the ATA, three types of cells respectively having medicine concentrations of 10, 30, and 100 micro M and a comparative cell to which nothing is administered were prepared. The magnification power of the microscope was 20×, the imaging interval was 5 frames per second, and the imaging time was 60 minutes. After motion vectors were calculated at intervals of approximately 1 micrometer, an average of the motion amount per unit time (motion speed) was calculated, to create a graph.
FIG. 27 is a graph of a motion speed for the cells to which AMP-PNP is administered at different medicine concentrations. FIG. 28 is a graph of a motion speed for the cells to which ATA is administered at different medicine concentrations.

Test [2] deals with U2OS cells. The experiment in a line: Change in motion speed by metabolic inhibition with mitochondrial uncoupler (phase contrast imaging, relative motion area). The conditions noted are these: U2OS cells, 0.5, 5 and 50 micro M, imaging time 20 minutes, versus comparative cell (FIG. 26). On the procedure:
Images (moving image) of U2OS cells cultured at different medicine concentrations were captured with a phase contrast microscope. A medicine was CCCP, which is a mitochondrial uncoupler used as a metabolic inhibitor. Three types of cells respectively having medicine concentrations of 0.5, 5, and 50 micro M and a comparative cell to which nothing is administered were prepared. The magnification power of the microscope was 20×, the imaging interval was 5 frames per second, and the imaging time was 20 minutes. After motion vectors were calculated at intervals of approximately 1 micrometer, a relative motion area was calculated to create a graph.
FIG. 26 is a graph of a relative motion area for the cells cultured at different medicine concentrations.

Test [3] deals with U2OS cells. The experiment in a line: Change in motion speed by microtubule disruption (phase contrast imaging, motion vector analysis). The conditions noted are these: 2 micro M, imaging time 20 minutes; for motion area in color map of motion speed: versus comparative cell (FIGS. 20, 22, 24); for relative motion area (proportion of the motion area to the cell area): versus comparative cell to which nothing is administered (FIG. 25). On the procedure:
Images (moving image) of U2OS cells cultured on different conditions were captured with a phase contrast microscope. Three types of cells, i.e., a cell to which Paclitaxel of 2 micro M is administered, a cell to which Nocodazole of 2 micro M is administered, and a comparative cell to which nothing is administered, were prepared. The Paclitaxel stabilizes a microtubule. The Nocodazole destabilizes a microtubule. The magnification power of the microscope was 20×, the imaging interval was 5 frames per second, and the imaging time was 20 minutes. After motion vectors were calculated at intervals of approximately 1 micrometer, a spatiotemporal average of the motion amount per unit time (motion speed) of each coordinate was calculated, to create a color map. Further, on the basis of the proportion of the cell within the captured image, a cell area and a motion area indicating a motion speed larger than a predetermined motion speed were calculated, and a relative motion area indicating a proportion of the motion area to the cell area was specified, to create a graph.
FIG. 19 is a phase-contrast image of a comparative cell to which nothing is administered, and FIG. 20 is a color map of the comparative cell. FIG. 21 is a phase-contrast image of a cell to which Paclitaxel is administered, and FIG. 22 is a color map of the cell. FIG. 23 is a phase-contrast image of a cell to which Nocodazole is administered, and FIG. 24 is a color map of the cell. FIG. 25 is a graph of a relative motion area for the cells cultured on those three conditions.

Molecules are shown by their SMILES.

For `Nc1ncnc2c1ncn2[C@@H]1O[C@H](COP(=O)(O)OP(=O)(O)NP(=O)(O)O)[C@@H](O)[C@H]1O` [AMP-PNP], the “motion speed (average of the motion amount per unit time)” value in the test with U2OS cells [1] (U2OS cells, 67, 200 and 670 micro M, versus comparative cell (FIG. 27)) is “the value of the motion speed decreases in accordance with an increase of the medicine concentration”.

Take `O=C(O)C1=CC(=C(c2ccc(O)c(C(=O)O)c2)c2ccc(O)c(C(=O)O)c2)C=CC1=O` [ATA]: in the test on U2OS cells [1] (U2OS cells, 10, 30 and 100 micro M, versus comparative cell (FIG. 28)), the “motion speed (average of the motion amount per unit time)” value is “the value of the motion speed decreases in accordance with an increase of the medicine concentration”.

Take `N#CC(C#N)=NNc1cccc(Cl)c1` [CCCP]: in the test on U2OS cells [2], the relative motion area result was “the value of the relative motion area decreases in accordance with an increase of the concentration of CCCP”.

As to `COC(=O)Nc1nc2ccc(C(=O)c3cccs3)cc2[nH]1` [Nocodazole], in the test with U2OS cells [3], the “motion area in color map of motion speed” value is given as “the motion area obviously shrinks in the color map” and the “relative motion area (proportion of the motion area to the cell area)” value is on record as “the value of the relative motion area decreases”.

Turning to `CC(=O)O[C@H]1C(=O)[C@@]2(C)[C@H]([C@H](OC(=O)c3ccccc3)[C@]3(O)C[C@H](OC(=O)[C@H](O)[C@@H](NC(=O)c4ccccc4)c4ccccc4)C(C)=C1C3(C)C)[C@]1(OC(C)=O)CO[C@@H]1C[C@@H]2O` [Paclitaxel], in the test with U2OS cells [3], the “motion area in color map of motion speed” value is “do not have difference in color map”; the “relative motion area (proportion of the motion area to the cell area)” value is “do not have difference in color map and in value of the relative motion area”.
